Measurements: US11851391B2, “Antifungal compounds and methods of forming the same” (University of Kentucky Research Foundation, priority 2018, dated 2023)
Converted amounts (≈) assume the structure as drawn. Where two headings read alike, the source gives them in different places.

Key:
[1] = system: C. albicans ATCC MYA-1003(R) (strain G); experiment: MIC determination, in vitro antifungal assay (CLSI M27-A3); assay type: cell-based, Candida albicans; conditions: MIC-0, 48 h at 35° C.
How it was run: (§1)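 A single colony was grown overnight in YPD broth at 35° C with shaking, set to OD600 0.12 in water, and diluted to 2-4×10^3 CFU/mL in MOPS-buffered RPMI 1640 (pH 7.0). MICs were then determined by the CLSI M27-A3 method at 35° C, keeping DMSO under 1.25%.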

[2] = system: C. albicans ATCC MYA-2876(S) (strain C); experiment: as above; assay type: cell-based, Candida albicans; conditions: MIC-0, 48 h at 35° C.
How it was run: as §1

[3] = system: Candida parapsilosis ATCC 22019 (strain J); experiment: as above; assay type: cell-based; conditions: strain J, MIC-0, 48 h at 35° C.
How it was run: (§2)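 Yeast from a single colony is grown overnight in YPD at 35° C with shaking, adjusted to OD600 0.12, then diluted into RPMI 1640 to 2-4×10^3 CFU/mL. Compounds are tested by modified CLSI M27-A3 microdilution, DMSO <1.25%, and MIC is scored as complete inhibition.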

[4] = system: Candida albicans ATCC 10231(R) (strain A); experiment: as above; assay type: cell-based; conditions: MIC-0 (no visible growth), 48 h at 35° C.
How it was run: as §2

[5] = system: human lung carcinoma cell line A549; experiment: In vitro cytotoxicity assay (resazurin); assay type: cell-based; conditions: 24 h
Procedure: The human bronchus normal cell line BEAS-2B (ATCC CRL-9609) and the human lung carcinoma cell line A549 (ATCC CRL-185) were kind gifts from the laboratories of Dr. Matthew S. Gentry (University of Kentucky, Lexington, KY, USA) and Dr. David K. Orren (University of Kentucky, Lexington, KY, USA). The mammalian cells were grown in Dulbecco's Modified Eagle's Medium (DMEM) (from ATCC) with 10% fetal bovine serum (FBS) (from ATCC) and 1% Pen/Strep (from ATCC). Cell lines were cultured at 37° C. with 5% CO2 and passaged by trypsinization with 0.05% trypsin:0.53 mM EDTA (from ATCC). Cell confluency was determined by using a Nikon Eclipse TS100 microscope (Minato, Tokyo, Japan).
Cytotoxicity assays were performed as previously described with slight modifications. A549 and BEAS-2B cells were first thawed from stocks and grown. The confluent cells were transferred to a 96-well microtiter plates at density of 3000 cells/well. The 96-well plates were incubated at 37° C. with 5% CO2 overnight. […] The stock solutions were serially diluted in 1.5 mL eppendorf tubes to achieve concentrations of 31-0.12 mg/mL. 1 μL of these 1000× compound stock solutions was then added to 999 μL of DMEM medium in 1.5 mL eppendorf tubes to obtain final concentrations of 31-0.12 μg/mL. […] The 96-well plates were further incubated for 24 h at 37° C. with 5% CO2. To evaluate cell survival, each well was treated with 10 μL (25 mg/L) of resazurin sodium salt (Sigma-Aldrich, St. Louis, MO, USA) and incubated for another 6 h. Metabolically active cells can convert resazurin to the highly fluorescent dye, resorufin, and be detected at A560 excitation and A590 emission using a SpectraMax M5 plate reader (Molecular Devices, San Jose, CA, USA). […] The percentage survival rates were calculated by using the following formula: % cell survival=[(fluorescence of sample)−(fluorescence of background)]×100/[(fluorescence of negative control)−(fluorescence of background)]. Experiments were done in duplicate.

[6] = Candida albicans, 48 h, read-out: MIC
[7] = Lodderomyces parapsilosis, ATCC22019, 48 h, read-out: MIC
[8] = Candida albicans, ATCC10231, 48 h, read-out: MIC
[9] = A549 (printed A459) at 31 μg/mL

Row | MIC [1, 6] | MIC [1] | MIC [2, 6] | MIC [3, 7] | MIC [4, 8] | MIC [4] | MIC [2] | MIC [3] | SMILES | toxicity (in words) [5, 9] | toxicity (in words) ([5]; A549 at 15.5 μg/mL)
1 | 1.95 to 3.9 µg/mL (≈ 4.99 to 9.99 µM) | 3.9 µg/mL (≈ 9.99 µM) | 31.3 µg/mL (≈ 80.2 µM) | > 31.3 µg/mL | 1.95 to 3.9 µg/mL (≈ 4.99 to 9.99 µM) | 1.95 µg/mL (≈ 4.99 µM) | – | – | C(=N\Nc1ccccc1)/c1ccc(-c2cccc(/C=N/Nc3ccccc3)c2)cc1 [Compound 7a] | – | –
2 | 7.8 to 15.6 µg/mL (≈ 17.3 to 34.6 µM) | 7.8 µg/mL (≈ 17.3 µM) | 7.8 to 15.6 µg/mL (≈ 17.3 to 34.6 µM) | 7.8 to 15.6 µg/mL (≈ 17.3 to 34.6 µM) | 7.8 to 15.6 µg/mL (≈ 17.3 to 34.6 µM) | 7.8 µg/mL (≈ 17.3 µM) | 7.8 µg/mL (≈ 17.3 µM) | 15.6 µg/mL (≈ 34.6 µM) | COc1ccc(N/N=C/c2ccc(-c3ccc(/C=N/Nc4ccc(OC)cc4)cc3)cc2)cc1 [Compound 15b] | generally non-toxic | –
3 | 7.8 to 15.6 µg/mL (≈ 18.3 to 36.6 µM) | 7.8 µg/mL (≈ 18.3 µM) | 7.8 to 15.6 µg/mL (≈ 18.3 to 36.6 µM) | 31.3 µg/mL (≈ 73.4 µM) | 7.8 to 15.6 µg/mL (≈ 18.3 to 36.6 µM) | 7.8 µg/mL (≈ 18.3 µM) | 7.8 µg/mL (≈ 18.3 µM) | – | Fc1ccc(N/N=C/c2ccc(-c3ccc(/C=N/Nc4ccc(F)cc4)cc3)cc2)cc1 [Compound 17b] | – | –
4 | 7.8 µg/mL (≈ 16.9 µM) | – | 15.6 µg/mL (≈ 33.7 µM) | 31.3 µg/mL (≈ 67.7 µM) | 1.95 to 3.9 µg/mL (≈ 4.22 to 8.43 µM) | 3.9 µg/mL (≈ 8.43 µM) | – | – | Fc1ccc(N/N=C/c2ccc(-c3cccc(/C=N/Nc4ccc(F)cc4F)c3)cc2)c(F)c1 [Compound 20a] | – | no toxicity
5 | 1.95 to 3.9 µg/mL (≈ 4.57 to 9.14 µM) | 3.9 µg/mL (≈ 9.14 µM) | 7.8 µg/mL (≈ 18.3 µM) | 31.3 µg/mL (≈ 73.4 µM) | 1.95 to 3.9 µg/mL (≈ 4.57 to 9.14 µM) | 1.59 to 3.9 µg/mL | – | – | Fc1ccc(N/N=C/c2ccc(-c3cccc(/C=N/Nc4ccc(F)cc4)c3)cc2)cc1 [Compound 17a] | generally non-toxic | –
6 | 7.8 µg/mL (≈ 17.2 µM) | – | 1.95 to 3.9 µg/mL (≈ 4.29 to 8.58 µM) | 15.6 µg/mL (≈ 34.3 µM) | 1.95 to 3.9 µg/mL (≈ 4.29 to 8.58 µM) | 1.95 µg/mL (≈ 4.29 µM) | 3.9 µg/mL (≈ 8.58 µM) | – | C/C(=N\Nc1ccc(F)cc1)c1ccc(-c2ccc(/C(C)=N/Nc3ccc(F)cc3)cc2)cc1 [Compound 17c, 4,4′-bis((E)-1-(2-(4-fluorophenyl)hydrazono)ethyl)-1,1′-biphenyl] | – | no toxicity
7 | – | – | 1.95 to 3.9 µg/mL (≈ 4.33 to 8.66 µM) | > 31.3 µg/mL | 1.95 to 3.9 µg/mL (≈ 4.33 to 8.66 µM) | 1.95 µg/mL (≈ 4.33 µM) | 3.9 µg/mL (≈ 8.66 µM) | – | COc1ccc(N/N=C/c2ccc(-c3cccc(/C=N/Nc4ccc(OC)cc4)c3)cc2)cc1 [Compound 15a] | generally non-toxic | –
8 | 7.8 to 15.6 µg/mL (≈ 18.3 to 36.6 µM) | 7.8 µg/mL (≈ 18.3 µM) | 7.8 to 15.6 µg/mL (≈ 18.3 to 36.6 µM) | 31.3 µg/mL (≈ 73.4 µM) | 1.95 to 3.9 µg/mL (≈ 4.57 to 9.14 µM) | 1.95 µg/mL (≈ 4.57 µM) | 7.8 µg/mL (≈ 18.3 µM) | – | Fc1cccc(N/N=C/c2ccc(-c3cccc(/C=N/Nc4cccc(F)c4)c3)cc2)c1 [Compound 12a] | – | no toxicity
